Measured values published in publication PMC6274227, “Interactions of Bovine Serum Albumin with Anti-Cancer Compounds Using a ProteOn XPR36 Array Biosensor and Molecular Docking” (Molecules, 2016).

Experiments:
[1] = biological target: T1, bovine serum albumin (BSA) (Bos taurus, UniProt P02769); experiment: ProteOn XPR36 SPR array biosensor binding to immobilized BSA; settings: for binding to the immobilized BSA (sensorgram): SPR, PBS-T buffer pH 7.4, 25 °C; for koff / kon: bovine, pH 7.4
Description: The GLH sensor chip, consisting of glass prisms coated with gold and an alginate-based layer, was an ideal choice for examining protein-small molecule interactions. The chip was initialized with 50% glycerol for several minutes prior to use.
Following initialization, the GLH sensor chip was washed with 0.5% SDS, 50 mM NaOH and 100 mM HCl, respectively, for 1 min each, at a flow rate of 100 µL/min. PBS-T buffer (10 mM sodium phosphate, 150 mM NaCl, and 0.005% Tween 20, pH 7.4) was then injected in three pulses for baseline stabilization.
One of the six channels was activated with a mixture of EDC (40 mM) and sulfo-NHS (10 mM) in the horizontal direction for 3 min, at a flow rate of 30 µL/min. BSA (2 mg/mL) was diluted to 300 nM in 10 mM sodium acetate (pH 4.0) and immobilized on the channel for 5 min, at a flow rate of 30 µL/min. Next, the channel was blocked by injection of 1 M ethanolamine-HCl for 5 min. […] Baseline equilibration was performed by multiple washes with running buffer (PBS-T) across the chip surface for 1 h.
Each compound was tested at six concentrations using a two-fold dilution series. Gradient concentrations of each compound were simultaneously injected over the BSA-immobilized surface at a flow rate of 30 µL/min in the vertical direction, where the association and dissociation times were 80 s and 60 s, respectively. All interaction analyses were performed at 25 °C.
All sensorgrams for protein binding were collected, processed, and analyzed using the ProteOn Manager software. We utilized two types of reference sources, the standard blank buffer reference, and interspot reference, which was the average response before and after each interaction spot to correct for nonspecific binding. The target protein was washed off in the dissociation phase, which caused baseline drift, although real-time injection of a blank reference can completely correct this baseline drift by subtracting artifacts in real time. The dual references were both subtracted from the interaction spot data to correct for any bulk shifts due to baseline drift and nonspecific binding. Finally, the data for each compound collected over the same target protein were globally fit to a Langmuir 1:1 binding model with a global ka and kd, where ka is the association rate constant and kd is the dissociation rate constant for the protein-small molecule binding. The ratio of (kd/ka) indicated the value for the equilibrium dissociation constant (KD).

[2] = biological target: T1, bovine serum albumin (BSA); set-up: I (residues 1–183), II (184–376), III (377–583); purchased Sigma-Aldrich; method as in doi:10.1016/j.molstruc.2008.01.013; settings: under physiological conditions; cited from earlier work

T1 sequence (P02769 25-607): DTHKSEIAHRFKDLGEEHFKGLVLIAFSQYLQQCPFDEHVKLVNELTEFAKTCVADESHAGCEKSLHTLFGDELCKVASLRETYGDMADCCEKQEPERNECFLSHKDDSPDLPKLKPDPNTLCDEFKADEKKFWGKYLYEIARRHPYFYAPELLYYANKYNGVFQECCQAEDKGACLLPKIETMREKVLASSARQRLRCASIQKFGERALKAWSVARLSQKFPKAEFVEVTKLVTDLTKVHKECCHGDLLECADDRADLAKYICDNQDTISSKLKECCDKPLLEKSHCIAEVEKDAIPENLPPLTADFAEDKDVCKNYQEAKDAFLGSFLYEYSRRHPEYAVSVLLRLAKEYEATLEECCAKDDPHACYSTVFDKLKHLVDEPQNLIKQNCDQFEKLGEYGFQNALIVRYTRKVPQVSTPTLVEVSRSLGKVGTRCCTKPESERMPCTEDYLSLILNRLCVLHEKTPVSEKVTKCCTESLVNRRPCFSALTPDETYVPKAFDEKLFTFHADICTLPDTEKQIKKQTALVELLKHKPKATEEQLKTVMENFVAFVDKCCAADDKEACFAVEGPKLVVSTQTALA

Molecule	Kd [1] [µM]	binding to the immobilized BSA (sensorgram) [1]	koff [1] [s⁻¹]	kon [1] [M⁻¹ s⁻¹]	difference in affinity for BSA between weakest and strongest binding compound ([1]; doxorubicin (weakest) versus salvianolic acid B (strongest))	binding to BSA via spectroscopic investigation [2]
C[C@@H]1O[C@@H](O[C@@H]2[C@@H](O)[C@H](OCCc3ccc(O)c(O)c3)O[C@H](CO)[C@H]2OC(=O)/C=C/c2ccc(O)c(O)c2)[C@H](O)[C@H](O)[C@H]1O [acteoside, Acteoside]	740 ± 360	able to reversibly bind	0.09 ± 0.02	149		
COc1cccc2c1C(=O)c1c(O)c3c(c(O)c1C2=O)C[C@@](O)(C(=O)CO)C[C@@H]3O[C@H]1C[C@H](N)[C@H](O)[C@H](C)O1 [doxorubicin, Doxorubicin, reference compound]		able to reversibly bind	0.73 ± 0.03	2	greater than 1000 fold	
O=C(O)c1cc(O)c(O)c(O)c1 [gallic acid, Gallic acid]	510 ± 250					
OC[C@H]1O[C@@H](OCCc2ccc(O)cc2)[C@H](O)[C@@H](O)[C@@H]1O [salidroside, Salidroside]		no such binding				could bind to BSA
O=C(/C=C/c1ccc(O)c2c1[C@H](C(=O)O[C@H](Cc1ccc(O)c(O)c1)C(=O)O)[C@@H](c1ccc(O)c(O)c1)O2)O[C@H](Cc1ccc(O)c(O)c1)C(=O)O [salvianolic acid B, Salvianolic acid B]	230 ± 70	able to reversibly bind	0.59 ± 0.24	2500		
CC[C@]1(O)C[C@H]2CN(CCc3c([nH]c4ccccc34)[C@@](C(=O)OC)(c3cc4c(cc3OC)N(C=O)[C@H]3[C@@](O)(C(=O)OC)[C@H](OC(C)=O)[C@]5(CC)C=CCN6CC[C@]43[C@@H]65)C2)C1 [vincristine, Vincristine, reference compound]	2560 ± 430	able to reversibly bind	1.96 ± 0.2	784		
Echinacoside		able to reversibly bind				
